Assay results as given in BindingDB's records for doi:10.1016/j.bmcl.2009.12.099 (Methylgene, 2010).

How the values were obtained:
[1] = Inhibition of c-MET in human A549 cells by wound healing assay
[2] = Inhibition of c-MET in human DU145 cells by scattering assay

| SMILES | IC50 [1] [nM] | IC50 [2] [nM] |
| --- | --- | --- |
| COc1ccccc1NC(=O)CC(Nc1ccc(Oc2ccnc3cc(-c4cn(C)cn4)sc23)c(F)c1)C(F)(F)F (stereo unspecified) [4,4,4-trifluoro-3-(3-fluoro-4-(2-(1-methyl-1H-imidazol-4-yl)thieno[3,2-b]pyridin-7-yloxy)phenylamino)-N-(2-methoxyphenyl)butanamide] | 2000 | 10000 |
| Cn1cnc(-c2cc3nccc(Oc4ccc(NC(CC(=O)Nc5ccc(F)cc5)C(F)(F)F)cc4F)c3s2)c1 (stereo unspecified) [4,4,4-trifluoro-3-(3-fluoro-4-(2-(1-methyl-1H-imidazol-4-yl)thieno[3,2-b]pyridin-7-yloxy)phenylamino)-N-(4-fluorophenyl)butanamide] | 400 | 400 |
| Cn1cnc(-c2cc3nccc(Oc4ccc(NC(CC(=O)Nc5ccc(F)cc5)C(F)(F)F)cc4)c3s2)c1 (stereo unspecified) [4,4,4-trifluoro-N-(4-fluorophenyl)-3-(4-(2-(1-methyl-1H-imidazol-4-yl)thieno[3,2-b]pyridin-7-yloxy)phenylamino)butanamide] | 2000 | 2000 |
